Data from patent US4272437A, “Antibacterial agents, and 4-thio azetidinone intermediates” (priority 1979, dated 1981).
Converted amounts (≈) assume the structure as drawn. Counter-ions that a name gives are not always drawn. Like-named read-outs stand apart in the source and are kept apart here.

Legend:
K. pneumoniae A-15130 = assay: MIC, tube dilution, Klebsiella pneumoniae A15130; type: cell-based; settings: overnight 37° C.; for MIC: Klebsiella pneumoniae, A15130, K. pneumoniae A15130, read-out: Minimum Inhibitory Concentration (M.I.C.)
Description: (§1) Representative compounds of the present invention were subjected to in vitro antibiotic screening against a variety of microorganisms.

[1] = tested on: Staph. aureus A-9537 and 50% serum; assay: MIC, tube dilution, Staph. aureus A9537 + 50% serum; type: cell-based, Staphylococcus aureus; settings: overnight 37° C.; for MIC: Staphylococcus aureus, read-out: Minimum Inhibitory Concentration (M.I.C.)
Description: as §1

[2] = tested on: Staph. aureus (Pen-Res) A-9606; assay: MIC, tube dilution, Staphylococcus aureus A9606 (Pen-Res); type: cell-based; settings: overnight 37° C.; for MIC: Staphylococcus aureus
Description: as §1

Str. pneumoniae A-9585 = assay: MIC, tube dilution, Streptococcus pneumoniae A9585; type: cell-based; settings: overnight 37° C., Nutrient Broth; for MIC: Streptococcus pneumoniae, A9585, Str. pneumoniae A9585, read-out: Minimum Inhibitory Concentration (M.I.C.)
Description: as §1

Proteus rettgeri A21203 = assay: MIC, tube dilution, Proteus rettgeri A21203; type: cell-based; settings: overnight 37° C.; for MIC: Providencia rettgeri, read-out: Minimum Inhibitory Concentration (M.I.C.)
Description: as §1

Str. faecalis A-20688 = assay: MIC, tube dilution, Streptococcus faecalis A20688; type: cell-based; settings: overnight 37° C.; for MIC: Enterococcus faecalis, A20688, Str. faecalis A20688, read-out: Minimum Inhibitory Concentration (M.I.C.)
Description: as §1

E. coli A-15119 = assay: MIC, tube dilution, Escherichia coli A15119; type: cell-based; settings: overnight 37° C.; for MIC: Escherichia coli, A15119, E. coli A15119, read-out: Minimum Inhibitory Concentration (M.I.C.)
Description: as §1

Ent. cloacae A-9659 = assay: MIC, tube dilution, Enterobacter cloacae A9659; type: cell-based; settings: overnight 37° C.; for MIC: Enterobacter cloacae, A9659, Enterobacter cloacae A9659, read-out: Minimum Inhibitory Concentration (M.I.C.)
Description: as §1

Ser. marcescens A-20019 = assay: MIC, tube dilution, Serratia marcescens A20019; type: cell-based; settings: overnight 37° C.; for MIC: Serratia marcescens, A20019, Serratia marcescens A20019, read-out: Minimum Inhibitory Concentration (M.I.C.)
Description: as §1

Pr. mirabilis A-9900 = assay: MIC, tube dilution, Proteus mirabilis A9900; type: cell-based; settings: overnight 37° C.; for MIC: Proteus mirabilis, A9900, Proteus mirabilis A9900, read-out: Minimum Inhibitory Concentration (M.I.C.)
Description: as §1

E. coli A-20341-1 = assay: MIC, tube dilution, Escherichia coli A20341-1; type: cell-based
Description: as §1

Ps. aeruginosa A-21213 = assay: MIC, tube dilution, Pseudomonas aeruginosa A21213; type: cell-based; settings: Pseudomonas aeruginosa A21213, overnight 37° C.; for MIC: read-out: Minimum Inhibitory Concentration (M.I.C.)
Description: as §1

Ps. aeruginosa A-9843A = assay: MIC, tube dilution, Pseudomonas aeruginosa A9843A; type: cell-based; settings: overnight 37° C.; for MIC: Pseudomonas aeruginosa, A9843A, read-out: Minimum Inhibitory Concentration (M.I.C.), Pseudomonas aeruginosa A9843A
Description: as §1

Proteus vulgaris A9555 = assay: MIC, tube dilution, Proteus vulgaris (mirabilis) A9555; type: cell-based; settings: overnight 37° C.; for MIC: read-out: Minimum Inhibitory Concentration (M.I.C.)
Description: as §1

Ent. cloacae A-9656 = assay: MIC, tube dilution, Enterobacter cloacae A9656; type: cell-based; settings: overnight 37° C.; for MIC: read-out: Minimum Inhibitory Concentration (M.I.C.)
Description: as §1

Staph. aureus A-9537 = assay: MIC, tube dilution, Staphylococcus aureus A9537; type: cell-based; settings: overnight 37° C., Nutrient Broth; for MIC: Staphylococcus aureus, A9537, Staph. aureus A9537, read-out: Minimum Inhibitory Concentration (M.I.C.)
Description: as §1

[3] = tested on: Staph. aureus (Meth-Res) A-15097; assay: MIC, tube dilution, Staphylococcus aureus A15097 (Meth-Res); type: cell-based; settings: overnight 37° C.; for MIC: Staphylococcus aureus
Description: as §1

Pr. morganii A-15153 = assay: MIC, tube dilution, Proteus morganii A15153; type: cell-based; settings: overnight 37° C.; for MIC: Morganella morganii, A15153, Proteus morganii A15153, read-out: Minimum Inhibitory Concentration (M.I.C.)
Description: as §1

Str. pyogenes A-9604 = assay: MIC, tube dilution, Streptococcus pyogenes A9604; type: cell-based; settings: overnight 37° C., Nutrient Broth; for MIC: Streptococcus pyogenes, A9604, Str. pyogenes A9604, read-out: Minimum Inhibitory Concentration (M.I.C.)
Description: as §1

[4] = tested on: Klebsiella species A20468; assay: MIC, tube dilution, Klebsiella species A20468; type: cell-based; settings: Klebsiella species (K. pneumoniae) A20468, overnight 37° C.; for MIC: read-out: Minimum Inhibitory Concentration (M.I.C.)
Description: as §1

[5] = Staph. aureus A9606 (Pen-Res), read-out: Minimum Inhibitory Concentration (M.I.C.)
[6] = A21203, Proteus rettgeri A21203
[7] = Escherichia coli, A203411, E. coli A20341-1; overnight 37° C.; read-out: Minimum Inhibitory Concentration (M.I.C.)
[8] = Enterobacter cloacae, A9656, Enterobacter cloacae A9656
[9] = Staph. aureus A15097 (Meth-Res), read-out: Minimum Inhibitory Concentration (M.I.C.)
[10] = read-out: Minimum Inhibitory Concentration (M.I.C.), Staph. aureus A9606 (Pen-Res)
[11] = Escherichia coli, A203411; E. coli A20341-1; overnight 37° C.; read-out: Minimum Inhibitory Concentration (M.I.C.)
[12] = read-out: Minimum Inhibitory Concentration (M.I.C.), Staph. aureus A15097 (Meth-Res)

| Structure (SMILES) | MIC (K. pneumoniae A-15130) [µg/mL] | MIC [1] [µg/mL] | MIC (Str. pneumoniae A-9585) [µg/mL] | MIC (Str. faecalis A-20688) [µg/mL] | MIC (E. coli A-15119) [µg/mL] | MIC (Ent. cloacae A-9659) [µg/mL] | MIC (Ser. marcescens A-20019) [µg/mL] | MIC (Pr. mirabilis A-9900) [µg/mL] | MIC (Ps. aeruginosa A-21213) [µg/mL] | MIC (Ps. aeruginosa A-9843A) [µg/mL] | MIC (Proteus vulgaris A9555) [µg/mL] | MIC (Staph. aureus A-9537) [µg/mL] | MIC (Pr. morganii A-15153) [µg/mL] | MIC (Str. pyogenes A-9604) [µg/mL] | MIC [4] [µg/mL] | MIC [2, 10] [µg/mL] | MIC (Proteus rettgeri A21203; Proteus rettgeri A21203) [µg/mL] | MIC (E. coli A-20341-1; [11]) [µg/mL] | MIC (Ent. cloacae A-9656; Enterobacter cloacae A9656) [µg/mL] | MIC [3, 12] [µg/mL] | further results |
| --- | --- | --- | --- | --- | --- | --- | --- | --- | --- | --- | --- | --- | --- | --- | --- | --- | --- | --- | --- | --- | --- |
| CC1=C(C(=O)O)N2C(=O)[C@@H]([C@@H](C)O)[C@H]2S1 (relative stereo) [Example 34, cis 6-(1'-Hydroxy-1'-ethyl)-2-methylpenem-3-carboxylic Acid, Sodium Salt (isomer "D")] | 32 | 63 | 0.25 | 125 | 4 | 32 | 32 | 16 | 125 | 125 | 16 | 4 | 32 | 2 | 125 |  |  |  |  |  | MIC [2, 5]: 4 µg/mL; MIC (Proteus rettgeri A21203; [6]): 32 µg/mL; MIC (E. coli A-20341-1; [7]): 16 µg/mL; MIC (Ent. cloacae A-9656; [8]): 63 µg/mL; MIC [3, 9]: 16 µg/mL |
| CC1=C(C(=O)O)N2C(=O)[C@@H](CO)[C@H]2S1 (relative stereo) [Example 68, trans 6-Hydroxymethyl-2-methylpenem-3-carboxylic Acid] | 63 (≈ 293 µM) | > 63 | 4 (≈ 18.6 µM) | 125 (≈ 581 µM) | 63 (≈ 293 µM) | 63 (≈ 293 µM) | 63 (≈ 293 µM) | 63 (≈ 293 µM) | 125 (≈ 581 µM) | 125 (≈ 581 µM) | 63 (≈ 293 µM) | 16 (≈ 74.3 µM) | 125 (≈ 581 µM) | 16 (≈ 74.3 µM) | 125 (≈ 581 µM) |  |  |  |  |  | MIC [2, 5]: 63 µg/mL (≈ 293 µM); MIC (Proteus rettgeri A21203; [6]): 63 µg/mL (≈ 293 µM); MIC (E. coli A-20341-1; [7]): 63 µg/mL (≈ 293 µM); MIC (Ent. cloacae A-9656; [8]): 63 µg/mL (≈ 293 µM); MIC [3, 9]: 63 µg/mL (≈ 293 µM) |
| O=C([O-])C1=C(c2cccnc2)S[C@@H]2CC(=O)N12.[Na+] [Example 53, Sodium 2-(3-Pyridyl)penem-3-carboxylate] | 16 | > 63 | 0.06 | 8 | 2 | 16 | 8 | 2 | 125 | 125 | 2 | 1 | 8 | 0.13 | > 125 | 8 | 2 | 63 | 32 | 16 |  |
| CSc1nnc(C2=C(C(=O)O)N3C(=O)CC3S2)o1 (stereo not drawn) [Example 56, Sodium 3-(5-Methylthio-1,3,4-oxadiazol-2-yl)penem-3-carboxylate] | > 125 | > 63 | 125 | > 125 | > 125 | > 125 | > 125 | > 125 | 125 | 125 | > 125 | > 125 | > 125 | 125 | > 125 | > 125 | > 125 | > 125 | > 125 | > 125 |  |
| COP(=O)(CCC1=C(C(=O)O)N2C(=O)CC2S1)OC (stereo not drawn) [Example 57] |  |  |  |  |  |  |  |  |  |  |  |  |  |  |  |  |  |  |  |  | Minimum Inhibitory Concentration (M.I.C.) (K. pneumoniae A-15130; K. pneumoniae A15130): 125 µg/mL; Minimum Inhibitory Concentration (M.I.C.) [1]: 16 µg/mL; Minimum Inhibitory Concentration (M.I.C.) ([2]; Staph. aureus A9606 (Pen-Res)): 125 µg/mL; Minimum Inhibitory Concentration (M.I.C.) (Str. pneumoniae A-9585; Str. pneumoniae A9585): .06 µg/mL; Minimum Inhibitory Concentration (M.I.C.) (Proteus rettgeri A21203; Proteus rettgeri A21203): 16 µg/mL; Minimum Inhibitory Concentration (M.I.C.) (Str. faecalis A-20688; Str. faecalis A20688): 125 µg/mL; Minimum Inhibitory Concentration (M.I.C.) (E. coli A-15119; E. coli A15119): 16 µg/mL; Minimum Inhibitory Concentration (M.I.C.) (Ent. cloacae A-9659; Enterobacter cloacae A9659): 125 µg/mL; Minimum Inhibitory Concentration (M.I.C.) (Ser. marcescens A-20019; Serratia marcescens A20019): 63 µg/mL; Minimum Inhibitory Concentration (M.I.C.) (Pr. mirabilis A-9900; Proteus mirabilis A9900): 8 µg/mL; Minimum Inhibitory Concentration (M.I.C.) (E. coli A-20341-1; E. coli A20341-1; overnight 37° C.): > 125 µg/mL; Minimum Inhibitory Concentration (M.I.C.) (Ps. aeruginosa A-21213): 125 µg/mL; Minimum Inhibitory Concentration (M.I.C.) (Ps. aeruginosa A-9843A; Pseudomonas aeruginosa A9843A): 125 µg/mL; Minimum Inhibitory Concentration (M.I.C.) (Proteus vulgaris A9555): 63 µg/mL; Minimum Inhibitory Concentration (M.I.C.) (Ent. cloacae A-9656; Enterobacter cloacae A9656): 63 µg/mL; Minimum Inhibitory Concentration (M.I.C.) (Staph. aureus A-9537; Staph. aureus A9537): 1 µg/mL; Minimum Inhibitory Concentration (M.I.C.) ([3]; Staph. aureus A15097 (Meth-Res)): > 125 µg/mL; Minimum Inhibitory Concentration (M.I.C.) (Pr. morganii A-15153; Proteus morganii A15153): 32 µg/mL; Minimum Inhibitory Concentration (M.I.C.) (Str. pyogenes A-9604; Str. pyogenes A9604): .13 µg/mL; Minimum Inhibitory Concentration (M.I.C.) [4]: > 125 µg/mL |
| CC(C)OP(=O)(CCC1=C(C(=O)O)N2C(=O)CC2S1)OC(C)C (stereo not drawn) [Preparation 54] | > 125 | 32 | 63 (≈ 173 µM) | 63 (≈ 173 µM) | 63 (≈ 173 µM) | 125 (≈ 344 µM) | 125 (≈ 344 µM) | 125 (≈ 344 µM) | 125 (≈ 344 µM) | 125 (≈ 344 µM) | > 125 | 32 (≈ 88.1 µM) | 125 (≈ 344 µM) | 125 (≈ 344 µM) | 63 (≈ 173 µM) | > 125 | 125 (≈ 344 µM) | 32 (≈ 88.1 µM) | 32 (≈ 88.1 µM) | 63 (≈ 173 µM) |  |
